Laboratory results taken from US6596757B1, “Cytotoxic agents comprising polyethylene glycol-containing taxanes and their therapeutic use” (Immunogen Inc., priority 2002, dated 2003).

How the values were obtained:
[1] = system: A-431 cells; assay: In vitro cytotoxicity, A-431 cells; type: cell-based; settings: read-out: IC50 towards A-431 cells
Method: (§1) Disulfide-containing and thiol-containing PEGylated taxane drugs of the invention can be evaluated for their ability to suppress proliferation of various unwanted cell lines in vitro. For example, cell lines such as the human lung carcinoma line A549, the human breast tumor line MCF-7, and the Burkitt's lymphoma line Namalwa can easily be used for the assessment of cytotoxicity of these compounds. Cells to be evaluated can be exposed to the compounds for 72 hours and the surviving fractions of cells measured in direct assays by known methods. IC50 values can then be calculated from the results of the assays.
Cytotoxicity of the PEGylated taxanes and their antibody conjugates to non-adherent cell lines such as Namalwa and HL-60 can be measured by back-extrapolation of cell proliferation curves as described in Goldmacher et al, 135 J. Immunol. 3648-3651 (1985). Cytotoxicity of these compounds to adherent cell lines such as SKBR3 and A431 can be determined by clonogenic assays as described in Goldmacher et al, 102 J. Cell Biol. 1312-1319 (1986).

[2] = system: MCF-7 cells; assay: In vitro cytotoxicity, MCF-7 cells, 72 hour exposure, surviving fraction by plating efficiency; type: cell-based; settings: MCF-7 (human breast tumor) cells, read-out: IC50 value towards MCF-7 cells
Method: as §1
The sulfide, disulfide, and sulfhydryl containing PEGylated taxane drugs of the invention can be evaluated for their ability to suppress proliferation of various human tumor cell lines in vitro. Two adherent cell lines A549(human lung carcinoma) and MCF-7 (human breast tumor) and the non-adherent cell line, Namalwa (Burkitt's lymphoma) are used for the assessment of cytotoxicity of these compounds. Cells are exposed to the compounds for 72 hours and the surviving fractions of cells are measured in direct assays.

Row | SMILES | IC50 [1] | IC50 [2]
1 | COc1ccc(OC)c(C(=O)OC2C3C4(OC(C)=O)COC4CC(O)C3(C)C(=O)C(OC(=O)CCOCCOCCOCCOCCSSC)C3=C(C)C(OC(=O)C(O)C(C=C(C)C)NC(=O)OC(C)(C)C)CC2(O)C3(C)C)c1 (stereo not drawn) [taxoid 17, 3′-Dephenyl-3′-(isobutenyl)-2-debenzoyl-2-(2,5-dimethoxybenzoyl)-10-(15-methyldithio-4,7,10,13-tetraoxapentadecanoyl)-docetaxel] | 0.33 nM | 0.063 nM
2 | COc1ccc(OC)c(C(=O)OC2C3C4(OC(C)=O)COC4CC(OC(=O)CCOCCOCCOCCOCCSSC)C3(C)C(=O)C(O)C3=C(C)C(OC(=O)C(O)C(C=C(C)C)NC(=O)OC(C)(C)C)CC2(O)C3(C)C)c1 (stereo not drawn) [taxoid 20, 3′-Dephenyl-3′-(isobutenyl)-2-debenzoyl-2-(2,5-dimethoxybenzoyl)-7-(15-methyldithio-4,7,10,13-tetraoxapentadecanoyl)-docetaxel] | – | 0.32 nM
